Key:
Format in all cases: in vivo
[1] = test system: barnyard grass (Eo); experiment: Test Example 1: herbicidal effects by flooded paddy field treatment; design: herbicidal effects, Eo (barnyard grass):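 0-5 growth inhibition grade; 5 = over 90%; 4 = 70-90%; 3 = 50-70%; 2 = 30-50%; 1 = 10-30%; 0 = under 10%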; details: for herbicidal effects, Eo (barnyard grass): dose 100 g active ingredient per 10 ares, examined on the 21st day after treatment, standards of Table 44; for Herbicidal effect index, Eo: dose 100 gai/10a, examined on 21st day after treatment, index 0-5 per Table 44;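 for Herbicidal effect index, Eo: 0-5 growth inhibition grade; 5 = over 90%; 4 = 70-90%; 3 = 50-70%; 2 = 30-50%; 1 = 10-30%; 0 = under 10%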
In short: (§1)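 Herbicidal effect is a graded score assigned 21 days after treatment. Application was one day after sowing into flooded (3 cm) puddled paddy soil, with diluted wettable powder dropped onto the water at 100 g active ingredient per 10 ares. Plants were kept in a greenhouse.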

[2] = test system: monochoria (Mo); experiment: as above; design: herbicidal effects, Mo (monochoria):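 0-5 growth inhibition grade; 5 = over 90%; 4 = 70-90%; 3 = 50-70%; 2 = 30-50%; 1 = 10-30%; 0 = under 10%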; details: for herbicidal effects, Mo (monochoria): dose 100 g active ingredient per 10 ares, examined on the 21st day after treatment, standards of Table 44; for Herbicidal effect index, Mo: dose 100 gai/10a, examined on 21st day after treatment, index 0-5 per Table 44
In short: as §1

[3] = test system: barnyard grass (Ec); experiment: Test Example 2: herbicidal effects by upland soil treatment; design: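 0-5 growth inhibition grade; 5 = over 90%; 4 = 70-90%; 3 = 50-70%; 2 = 30-50%; 1 = 10-30%; 0 = under 10%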; details: dose 100 g active ingredient per 10 ares, examined on the 21st day after treatment, standards of Table 44
In short: (§2)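 Pre-emergence test: barnyard grass and green foxtail sown in upland soil, then soil surface sprayed with wettable-powder formulation at 100 g active ingredient per 10 ares (100 l per 10 ares). Grown in greenhouse; herbicidal effect scored on a rating scale 21 days after treatment.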

[4] = test system: green foxtail (Se); experiment: as above; details: dose 100 g active ingredient per 10 ares, examined on the 21st day after treatment, standards of Table 44;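 note: 0-5 growth inhibition grade; 5 = over 90%; 4 = 70-90%; 3 = 50-70%; 2 = 30-50%; 1 = 10-30%; 0 = under 10%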
In short: as §2

[5] = test system: barnyard grass (Eo); experiment: Test Example 4: selectivity for a crop plant by flooded paddy field treatment; design: scale not given here; details: for Eo (herbicidal effect index): barnyard grass, dose 25 gai/10a, 21st day after treatment, index per Table 44
In short: (§3)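 Scores reflect visual herbicidal effect, graded on a standard scale 21 days after water-surface treatment. The product, a wettable powder diluted with water, went on dropwise at 25 g a.i. per 10 ares one day after flooding to 3 cm. Weeds grew from sown seed and rice was transplanted at second-leaf stage.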

[6] = test system: monochoria (Mo); experiment: as above; design: scale not given here; details: for Mo (herbicidal effect index): monochoria, dose 25 gai/10a, 21st day after treatment, index per Table 44
In short: as §3

[7] = test system: rice (Or); experiment: as above; design: scale not given here; details: rice transplanted at second leaf stage; for Or (herbicidal effect index on crop): dose 25 gai/10a, 21st day after treatment, index per Table 44
In short: as §3

[8] = dose 25 g active ingredient per 10 ares, examined on the 21st day after treatment
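Throughout, for Herbicidal effect index, Mo: 0-5 growth inhibition grade; 5 = over 90%; 4 = 70-90%; 3 = 50-70%; 2 = 30-50%; 1 = 10-30%; 0 = under 10%.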

Row | Or (effect on crop plant rice, index) [7, 8] | Structure (SMILES) | herbicidal effects, Eo (barnyard grass) [1] | herbicidal effects, Mo (monochoria) [2] | herbicidal effects, Ec (barnyard grass) [3] | herbicidal effects, Se (green foxtail) [4] | Eo (herbicidal effect index) [5] | Mo (herbicidal effect index) [6] | Or (herbicidal effect index on crop) [7] | Herbicidal effect index, Eo [1] | Herbicidal effect index, Mo [2] | Eo (herbicidal effects, index) [5, 8] | Mo (herbicidal effects, index) [6, 8]
1 |  | Cc1cccc(OCC(=O)N(C)C(c2cncnc2C(F)(F)F)C(C)C)c1 (racemic) [Compound 1-135] | 5 | 5 | 5 | 5 | 5 | 5 | 1 |  |  |  | 
2 |  | Cc1ccc(CC(=S)N(C)C(c2cncnc2C(F)(F)F)C(C)C)cc1 (racemic) [Compound 1-145] | 5 | 5 | 5 | 5 | 5 | 5 | 1 |  |  |  | 
3 |  | CC(C)C(c1cncnc1C(F)(F)F)N(C)C(=O)OCc1ccccc1 (racemic) [Compound 1-118] |  |  | 5 | 5 | 5 | 3 | 0 | 5 | 5 |  | 
4 |  | COCN(C(=O)Cc1ccc(C)cc1)C(c1cncnc1C(F)(F)F)C(C)C (racemic) [Compound 1-106] |  |  | 5 | 4 | 5 | 5 | 0 | 5 | 5 |  | 
5 |  | CC(Oc1ccc(Cl)cc1)C(=O)N(C)C(c1cncnc1C(F)(F)F)C(C)C (mixture of isomers) [Compound 1-116] |  |  | 5 | 4 | 5 | 5 | 0 | 5 | 5 |  | 
6 | 1 | CC(C)C(c1cncnc1C(F)(F)F)N(C)C(=O)Cc1ccccc1Cl (racemic) [Compound 1-20] |  |  | 5 | 5 |  |  |  | 5 | 5 | 5 | 5
7 |  | CC(C)C(c1cncnc1C(F)(F)F)N(C)C(=O)Cc1ccc(F)cc1F (racemic) [Compound 1-147] | 5 | 5 | 5 | 5 | 5 | 5 | 1 |  |  |  | 
8 |  | Cc1ccc(C(c2cncnc2C(F)(F)F)N(C)C(=O)Cc2ccc(F)cc2)cc1 (racemic) [1-226] | 5 | 5 | 5 | 4 | 5 | 5 | 1 |  |  |  | 
9 |  | Cc1ccc(CC(=O)N(C)C(c2cncnc2C(F)(F)F)C(C)C)cc1Cl (racemic) [Compound 1-121] |  |  | 5 | 4 | 5 | 5 | 1 | 5 | 5 |  | 
10 |  | CC(C)C(c1cncnc1C(F)(F)F)N(C)C(=O)COc1cccc(F)c1 (racemic) [Compound 1-126] |  |  | 5 | 5 | 5 | 5 | 1 | 5 | 5 |  | 
11 |  | CC(C)C(c1cncnc1C(F)(F)F)N(C)C(=O)Cc1ccc(Cl)c(F)c1 (racemic) [1-180] | 5 | 5 | 5 | 5 | 5 | 5 | 1 |  |  |  | 

Source: patent US6806230B1, “Pyrimidine derivatives and herbicides containing them” (Kumiai Chemical Industry Co., Ltd., priority 1999, dated 2004)
